The source of these data is patent US9718790B2, “Triazine derivative and pharmaceutical composition having an analgesic activity comprising the same” (SHIONOGI & CO., LTD., priority 2010, dated 2017).

Chain of human P2X3 receptor (P56373 whole entry): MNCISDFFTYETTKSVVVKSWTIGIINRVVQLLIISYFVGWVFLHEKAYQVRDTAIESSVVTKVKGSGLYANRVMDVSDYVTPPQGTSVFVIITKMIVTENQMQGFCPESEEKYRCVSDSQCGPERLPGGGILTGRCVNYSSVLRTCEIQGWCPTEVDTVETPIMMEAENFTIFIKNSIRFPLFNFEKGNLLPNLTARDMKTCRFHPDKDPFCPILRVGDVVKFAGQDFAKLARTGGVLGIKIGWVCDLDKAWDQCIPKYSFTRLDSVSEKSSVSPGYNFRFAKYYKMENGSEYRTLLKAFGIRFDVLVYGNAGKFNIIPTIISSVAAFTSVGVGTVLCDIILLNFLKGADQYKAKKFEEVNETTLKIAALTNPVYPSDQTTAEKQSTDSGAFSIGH

One assay concerns the target human P2X3 receptor (Homo sapiens (Human), UniProt P56373). In words: Evaluation of human P2X3 receptor inhibitory activity (Fluo-3 calcium fluorescence, FDSS 3000, ATP stimulation).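 Also: stimulus was 50 nM ATP with fluorescence followed for 3 min, and the response per well was peak post-ATP fluorescence divided by the reading at measurement start.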 The assay is classed as cell-based. The note with it: C6BU-1 cells stably expressing human P2X3 receptor.
Usually IC50 stands for the point on the concentration scale where inhibition reaches its midpoint. For the compound `COc1ccc2cc(/N=c3\[nH]c(=O)n(CCC(=O)O)c(=O)n3Cc3ccc(C)cc3)ccc2n1` [Compound I-2137], the IC50 came to 134 nM. With `CC(C)Oc1ccc(/N=c2\[nH]c(=O)n(CCC(=O)O)c(=O)n2CC2CCC3(CC2)CC3)cc1Cl` [Compound I-1461], the 50% inhibitory concentration (IC50) came to 25 nM.

In the case of `Cc1ccc(Cn2c(=O)n([C@H](C)[C@H](C)C(=O)O)c(=O)[nH]/c2=N\c2ccc(OC(C)C)cc2)cc1` [Compound I-1336], the half-maximal inhibitory concentration (IC50) turned out to be 71 nM. For `COC(=O)Cn1cccc(Cn2c(=O)[nH]/c(=N\c3ccc(OC(C)C)c(C)c3)n(Cc3ccc(Cl)cc3)c2=O)c1=O` [Compound I-0757], the half-inhibitory concentration (IC50) worked out at 35 nM. The same measure, in the same setting: with `Cc1cc(/N=c2\[nH]c(=O)n(Cc3cccn(CCO)c3=O)c(=O)n2Cc2ccc(Cl)cc2)ccc1OC(C)C` [Compound I-0713] the figure was 16 nM; with `Cc1cc(/N=c2\[nH]c(=O)n(Cc3cccn(CC(=O)O)c3=O)c(=O)n2Cc2ccc(Cl)cc2)ccc1OC(C)C` [Compound I-0760], 37 nM; with `Cc1cc(Oc2ccc(/N=c3\[nH]c(=O)n(CC(N)=O)c(=O)n3Cc3ccc(Cl)cc3)cc2)ccn1` [Compound I-1926], 10 nM. Consider `CNC(=O)Cn1c(=O)[nH]/c(=N\c2ccc(OC3CCC3)cc2)n(Cc2ccc(Cl)cc2)c1=O` [Compound I-1948], for which the half-maximal inhibitory concentration (IC50) is 22 nM.

In the case of `CC(C)Oc1ccc(/N=c2\[nH]c(=O)n(CC(=O)NN)c(=O)n2Cc2ccc(Cl)cc2)cc1F` [Compound I-0635], the half-inhibitory concentration (IC50) is 19 nM. Same read-out and setting: then `CCOC(=O)CCn1c(=O)[nH]/c(=N\c2ccc(OC3CCC3)cc2)n(Cc2ccc(C)cc2)c1=O` [Compound I-1282], with 4 nM; and `COC(=O)[C@@H](C)[C@@H](C)n1c(=O)[nH]/c(=N\c2ccc(OC(C)C)c(C)c2)n(Cc2ccc(C)cc2)c1=O` [Compound I-1312], with 45 nM. Still for that read-out and setting: then `COC(=O)[C@@H](C)Cn1c(=O)[nH]/c(=N\c2ccc(OC)c(C(F)(F)F)c2)n(Cc2ccc(Cl)cc2)c1=O` [Compound I-0796], with 386 nM; and `CNC(=O)CCCn1c(=O)[nH]/c(=N\c2ccc(OC(C)C)c(C)c2)n(Cc2ccc(Cl)cc2)c1=O` [Compound I-0786], with 15 nM; and `Cc1[nH]c2ccc(/N=c3\[nH]c(=O)n(C[C@H]4COC(C)(C)O4)c(=O)n3Cc3ccc(Cl)cc3)cc2c1C` [Compound I-2039], with 9 nM. Same read-out and setting: then `COC(=O)[C@@H](C)[C@@H](C)n1c(=O)[nH]/c(=N\c2ccc(OC(C)C)c(C)c2)n(Cc2ccc(Cl)cc2)c1=O` [Compound I-0811], with 40 nM. As to `C[C@@H](Cn1c(=O)[nH]/c(=N\c2ccc3ncccc3c2)n(Cc2ccc(Cl)cc2)c1=O)C(=O)O` [Compound I-1346], the concentration for half-maximal inhibition (IC50) was 812 nM. Consider `Cc1ccc2cc(/N=c3\[nH]c(=O)n([C@@H](C)[C@@H](C)C(=O)O)c(=O)n3Cc3ccc(Cl)cc3)ccc2n1` [Compound I-1350], for which the IC50 came to 28 nM.

With `CCn1c(=O)[nH]/c(=N\c2ccc(Oc3cc(C(N)=O)ccn3)cc2)n(Cc2ccc(Cl)cc2)c1=O` [Compound I-2165], the 50% inhibitory concentration (IC50) was 979 nM. On to `CCn1c(=O)[nH]/c(=N\c2ccc(Oc3ccc(F)c(C(=O)O)c3)cc2)n(Cc2ccc(Cl)cc2)c1=O` [Compound I-2066], for which the IC50 amounted to 23 nM.

`Cc1ccc(Cn2c(=O)n(C[C@H](C)C(=O)O)c(=O)[nH]/c2=N\c2ccc(Oc3ccnc(O)c3)cc2)cc1` [Compound I-1440]: the half-maximal inhibitory concentration (IC50) was determined as 6 nM.

For `O=C(O)c1cc(Oc2ccc(/N=c3\[nH]c(=O)n(CCO)c(=O)n3Cc3ccc(Cl)cc3)cc2)no1` [Compound I-2117], the half-maximal inhibitory concentration (IC50) was determined as 23 nM. Take `COC(=O)[C@@H](C)Cn1c(=O)[nH]/c(=N\c2ccc(OC(C)C)c(C)c2)n(Cc2ccc(C)cc2)c1=O` [Compound I-0670]: the IC50 was 8 nM.

With `CNC(=O)CCn1c(=O)[nH]/c(=N\c2ccc(OC3CCC3)cc2)n(Cc2ccc(Cl)cc2)c1=O` [Compound I-1913], the IC50 was 19 nM. The same measure, in the same setting: with `COC(=O)[C@H](C)Cn1c(=O)[nH]/c(=N\c2ccc(OC(C)C)c(C)c2)n(CC2CCCCC2)c1=O` [Compound I-0631] the figure was 10 nM; with `CC(C)Oc1ccc(/N=c2\[nH]c(=O)n(C/C(N)=N/O)c(=O)n2Cc2ccc(Cl)cc2)cc1F` [Compound I-0599], 38 nM.

`CCCCOc1ccc(/N=c2\[nH]c(=O)n(C[C@H](C)C(=O)OC)c(=O)n2Cc2ccc(C)cc2)cc1` [Compound I-0816]: the IC50 came to 37 nM. Same read-out and setting: with `COc1cc(/N=c2\[nH]c(=O)n(C[C@H](O)CO)c(=O)n2Cc2ccc(Cl)cc2)ccc1OC(C)C` [Compound I-2004] the figure was 13 nM.

Still in this assay, the particulars now being: C6BU-1 cells stably expressing human P2X3 receptor, Fluo-3 fluorescence, FDSS 3000.
As to `CCSc1ccc(/N=c2\[nH]c(=O)n(C[C@H](C)C(=O)OC)c(=O)n2Cc2ccc(Cl)cc2)cc1C` [Compound I-1040], the IC50 was determined as 128 nM. Still for that read-out and setting: with `Cc1ccc(Cn2c(=O)n(C[C@H](C)C(=O)O)c(=O)[nH]/c2=N\c2ccc(OC(F)(F)F)cc2)cc1` [Compound I-1002] the figure was 298 nM; with `Cc1ccc(Cn2c(=O)n(C[C@H](C)C(=O)O)c(=O)[nH]/c2=N\c2cccc(C3=CCCC3)c2)cc1` [Compound I-1115], 516 nM. On the same count and under the same terms, then `C[C@@H](C(=O)O)[C@H](C)n1c(=O)[nH]/c(=N\c2ccc3c(c2)CCCC3)n(Cc2ccc(Cl)cc2)c1=O` [Compound I-1796], with 587 nM; and `Cc1ccc(Cn2c(=O)n(C[C@H](C)C(=O)O)c(=O)[nH]/c2=N\c2cccc(C3=CCCCC3)c2)cc1` [Compound I-1112], with 872 nM; and `C#Cc1ccc(Cn2c(=O)n(C[C@H](C)C(=O)O)c(=O)[nH]/c2=N\c2ccc(OC(C)C)c(C)c2)cc1` [Compound I-0946], with 239 nM.

For `COC(=O)[C@@H](C)Cn1c(=O)[nH]/c(=N\c2ccc(C3=CCCC3)cc2)n(Cc2ccc(C)cc2)c1=O` [Compound I-1083], the IC50 was 125 nM. On the same count and under the same terms, then `C[C@@H](Oc1ccc(/N=c2\[nH]c(=O)n(C[C@H](O)CO)c(=O)n2Cc2ccc(Cl)cc2)cc1)C(F)(F)F` [Compound I-1845], with 33 nM; and `COc1ccc(Oc2ccc(/N=c3\[nH]c(=O)n(CCO)c(=O)n3Cc3ccc(Cl)cc3)cc2)cn1` [Compound I-1732], with 11 nM; and `CCc1oc2ccc(/N=c3\[nH]c(=O)n(C[C@H](C)NC(C)=O)c(=O)n3Cc3ccc(Cl)cc3)cc2c1C` [Compound I-1666], with 10 nM.

With `CCc1nc2ccc(/N=c3\[nH]c(=O)n(CC(N)=O)c(=O)n3Cc3ccc(Cl)cc3)cc2s1` [Compound I-1805], the IC50 was found to be 5 nM. Same read-out and setting: then `CC(C)Oc1ccc(/N=c2\[nH]c(=O)n(CCC(=O)O)c(=O)n2CC2(C)CCCCC2)cc1F` [Compound I-1809], with 339 nM.

For the compound `CCn1c(=O)[nH]/c(=N\c2ccc(Oc3cccc(C(=O)OC)c3)cc2)n(Cc2ccc(Cl)cc2)c1=O` [Compound I-1880], the 50% inhibitory concentration (IC50) was 15 nM. The same measure, in the same setting: then `Cc1ccc(Cn2c(=O)n(C[C@H](C)C(=O)O)c(=O)[nH]/c2=N\c2ccc(OCCC(C)C)cc2)cc1` [Compound I-1063], with 152 nM; and `CC(C)=Cc1ccc(/N=c2\[nH]c(=O)n(C[C@H](C)C(=O)O)c(=O)n2Cc2ccc(Cl)cc2)cc1C` [Compound I-0950], with 20 nM. As to `Cc1cc(/N=c2\[nH]c(=O)n(CC3CNC3)c(=O)n2Cc2ccc(Cl)cc2)ccc1OC(C)C` [Compound I-1654], the IC50 turned out to be 66 nM. Still for that read-out and setting: then `CCn1c(=O)[nH]/c(=N\c2ccc(Oc3ccc(C(N)=O)cc3)cc2)n(Cc2ccc(Cl)cc2)c1=O` [Compound I-1870], with 4 nM; and `COC(=O)[C@@H](C)Cn1c(=O)[nH]/c(=N\c2ccc(C=C3CCCC3)cc2)n(Cc2ccc(C)cc2)c1=O` [Compound I-1094], with 103 nM. Same read-out and setting: with `CCC(CC)Oc1ccc(/N=c2\[nH]c(=O)n(CCC(=O)O)c(=O)n2Cc2ccc(C)cc2)cc1` [Compound I-1069] the figure was 111 nM.

Still in this assay, the particulars now being: human P2X3 receptor, Test Example 1.
Consider `COC(=O)[C@@H](C)Cn1c(=O)[nH]/c(=N\c2ccc(OCC(F)F)cc2)n(Cc2ccc(Cl)cc2)c1=O` [Compound I-0846], for which the IC50 turned out to be 35 nM.

On to `CCn1c(=O)[nH]/c(=N\c2ccc(Oc3cnc(C(=O)O)cn3)cc2)n(Cc2ccc(Cl)cc2)c1=O` [Compound I-2296], for which the IC50 turned out to be 5 nM. On the same count and under the same terms, with `CO/N=C/c1ccc(/N=c2\[nH]c(=O)n(C[C@H](C)C(=O)OC)c(=O)n2Cc2ccc(Cl)cc2)cc1F` [Compound I-0881, (S)-1-(4-chlorobenzyl)-6-(3-fluoro-4-methoxyiminomethylphenylimino)-3-(2-methoxycarbonylpropyl)-1,3,5-triazinane-2,4-dion] the figure was 127 nM; with `CCn1c(=O)[nH]/c(=N\c2cccc(Oc3cccc(C#N)n3)c2)n(Cc2ccc(Cl)cc2)c1=O` [Compound I-2591], 51 nM.

As for `CC1(Cn2c(=O)[nH]/c(=N\c3ccc(OCC4CC4)cc3)n(Cc3ccc(Cl)cc3)c2=O)COC(C)(C)OC1` [Compound I-2615], the IC50 was found to be 7 nM. On the same count and under the same terms, then `CNC(=O)CCn1c(=O)[nH]/c(=N\c2ccc(Oc3ccon3)cc2)n(Cc2ccc(Cl)cc2)c1=O` [Compound I-2527], with 26 nM. Same read-out and setting: with `CCn1c(=O)[nH]/c(=N\c2ccc(Oc3cccc(C#N)n3)c(F)c2)n(Cc2ccc(Cl)cc2)c1=O` [Compound I-2492] the figure was 4 nM; with `Cc1cc(/N=c2\[nH]c(=O)n(C[C@H](C)C(=O)O)c(=O)n2Cc2ccc(Br)cc2)ccc1OC(C)C` [Compound I-0868], 23 nM; with `Cc1cc(Oc2ccc(/N=c3\[nH]c(=O)n(C[C@H]4COC(C)(C)O4)c(=O)n3Cc3ccc(Cl)cc3)cc2)n(C)n1` [Compound I-2368], 13 nM. Same read-out and setting: then `CCCOc1ccc(/N=c2\[nH]c(=O)n(C(C)(C)CC(=O)O)c(=O)n2Cc2ccc(Cl)cc2)cc1` [Compound I-0829], with 216 nM; and `CCOC(=O)C(F)(F)Cn1c(=O)[nH]/c(=N\c2ccc(OCC)c(Cl)c2)n(Cc2ccc(C)cc2)c1=O` [Compound I-0856], with 12 nM; and `CCOC(=O)Cn1c(=O)[nH]/c(=N\c2ccc(Oc3ncccn3)cc2)n(Cc2ccc(Cl)cc2)c1=O` [Compound I-2657], with 7 nM. Consider `CCCOc1ccc(/N=c2\[nH]c(=O)n(CCCC(=O)O)c(=O)n2Cc2ccc(C)cc2)cc1Cl` [Compound I-0873], for which the IC50 came out at 47 nM.
